Values after ≈ are worked out from the molar mass of the structure shown. Where a name gives a salt, the structure may show the parent alone. Read-outs that look alike come from different tables or passages of the source. Each block holds one compound with its values, some of them ahead of it.
Tests used:
[1] = tested on: α1 adrenergic receptor; settings: α1 adrenergic receptor antagonist; ChEMBL substructure search; cited from earlier work
[2] = tested on: Glucose Transporter; design: method as in earlier work; settings: ChEMBL substructure search; cited from earlier work
[3] = tested on: DHFR; settings: ChEMBL substructure search; cited from earlier work
[4] = tested on: endothelium-denuded rat pulmonary arterial rings; assay: Vasorelaxation of PE pre-contracted endothelium-denuded (E−) pulmonary arterial rings, organ bath
[5] = physchem; settings: for solubility thermodynamic at 6 h: pH 7.4, aqueous buffer, thermodynamic from solid
Protocol: The solubility of the compounds under investigation here were assessed in phosphate buffer at pH 7.4 using the equilibrium shake-flask method.
An equilibrium shake-flask technique was used to determine the solubility of samples in PBS at pH 7.4. Approximately 1 mg of sample was placed in a 10 mL glass screw top vial and dissolved in 1 mL of 0.02 M PBS at pH 7.4. The solution was sonicated for 1 h, followed by shaking for 6 h (IKA HS 260). The saturated solution was then filtered using a nylon syringe filter. A standard solution of each sample was prepared by dissolving a weighed amount of the sample in 1 mL of DMSO. The concentration of sample dissolved in the PBS solution was determined by comparing the peak area of the PBS and DMSO standard using an Agilent 1100 series HPLC with a Sunshell C8 column (Chromanik Technologies Inc., Osaka, Japan). A 100 µL injection of the aqueous sample and 5 µL of DMSO solution (pre-diluted 100 fold using DMSO) were used.

[6] = tested on: endothelium-intact rat pulmonary arterial rings; assay: Vasorelaxation of PE pre-contracted endothelium-intact (E+) pulmonary arterial rings, organ bath; settings: Rattus norvegicus
[7] = tested on: A549 cells; assay: MTT cytotoxicity assay in A549 cells; format: cell-based; settings: Homo sapiens
Protocol: A 3-[4,5-dimehyl-2-thiazolyl]-2,5-diphenyl-2H-tetrazoliumbromide (MTT) assay was utilized to assess the concentration-response curves for quinazoline analogues as previously reported. A549 cells (ATCC CCL-185, human alveolar basal epithelial cell line) were used to account for the general cytotoxicity of compounds. Cells were cultured in DMEM medium containing fetal bovine serum (FBS; 10%), penicillin (10 U/mL), and streptomycin (100 U/mL). The temperature was maintained at 37 °C with 5% CO2. Cells were seeded for 16–18 h in DMEM and incubated for 72 h with the test compounds. After incubation, MTT (5 mg/mL in normal saline) was added with DMEM and incubated for 3 h. Careful decantation of the medium and addition of DMSO (50 µL) was done. Absorbance values were recorded at 570 nm after 5 min mechanical shaking of the microplate (Sunrise microplate reader, Tecan).
The activity was presented as the inhibitory concentration required to produce a 50% response (IC50). Prism 6.0 GraphPad Software Inc., (San Diego, CA, USA) was utilized for data fitting. 0.5% DMSO was used as the negative control.

[8] = target: PDE-5 (Homo sapiens, UniProt O76074); settings: cited from earlier work
[9] = tested on: Aldehyde dehydrogenase 1A1; design: method as in earlier work; settings: ChEMBL substructure search; cited from earlier work
[10] = tested on: PE-induced contraction of endothelium-denuded pulmonary arterial rings; assay: Inhibition of phenylephrine (PE)-induced contraction in endothelium-denuded arterial rings; design: species or system rat; settings: Rattus norvegicus; 10 µM compound, 15 min pre-incubation, PE 0.0001–100 µM, E− rings; n = 3–5; read-out: % PE-Contraction Inhibition (SEM)
Protocol: These experiments were undertaken to assess the pharmacological activity of quinazoline analogues against the structurally related α1 receptor blocker (prazosin). In contrast to previous vasorelaxant experiments, this protocol was developed to determine the inhibitory effect of pre-incubated (15 min) inhibitors (10 µM) on the concentration-dependent vasoconstriction induced by cumulative addition of PE (0.0001–100 µM) in endothelium-denuded pulmonary arterial rings. Figure 5 illustrates the real time contractile response shown by the pulmonary arterial ring upon cumulative addition of PE, which evoked a concentration-dependent vasoconstriction, increasing the vessel’s tension.
After anesthesia with thiopental sodium (100 mg/kg, i.p.) (Anesthal®, Jagsonpsal Pharmaceutical Ltd., Haryana, India), rats were euthanized by exsanguination. Lungs were carefully excised, cleaned by the removal of connective tissue, and placed in cold physiological Krebs’ solution composed of (mM): NaCl 122; KCl 5; N-[2-hydroxyethyl] piperazine-N′-[2-ethane-sulfonic acid] (HEPES) 10; KH2PO4 0.5; NaH2PO4 0.5; MgCl2 1; CaCl2 1.8; and glucose 11 adjusted to pH 7.3 using 1 M NaOH. The pulmonary artery was isolated from the lungs and cut into rings approximately 2 mm in length before mounting in the organ bath chambers. Endothelial cells were mechanically removed in some experiments by gentle rubbing of the inner surface with forceps. Pulmonary arterial rings were mounted on intraluminal wires via stainless steel hooks maintaining the resting tension at 1 g and rings were equilibrated for 30 min before obtaining a stable contraction with 10^−5 M phenylephrine (PE). The rings were immersed in 10 mL baths containing physiological Krebs’ solution at 37 °C, which was continuously bubbled with air. Force transducers were connected with intraluminal wires to measure isometric tension via a Mac Lab A/D converter (Chart V5, A.D. Instruments, Castle Hill, NSW, Australia). The functional integrity of the endothelium in the vessels was confirmed by vasorelaxation of ≥70% with sequential addition of 10^−5 M acetylcholine (ACh) to pre-contracted vessels with 10^−5 M PE. Relaxations ≤30% to 10^−5 M ACh in vessels rubbed mechanically were considered successfully endothelium denuded.
The protocol included the assessment of the inhibitory vasoconstriction effect of quinazoline test compounds on endothelium-denuded arterial rings. Briefly, the arterial rings were treated with the α1-receptor blocker (prazosin) or test compound at a concentration of 10 µM for 15 min before construction of the second concentration response curve with cumulative addition of PE (0.0001–100 µM). The same conditions were used to test the effects of the solvent (DMSO 0.2%). The results were obtained in percentages by comparison of the maximum contraction without treatment with the contraction in the presence of the test compound [24, 36, 37].

SMILES: COc1cc2nc(N(C)CCCNC(=O)C3CCCO3)nc(N)c2cc1OC (stereo not drawn) [Alfuzosin]
Activity [1]: 3 nM

SMILES: COc1cc2nc(N(C)C3CCN(Cc4ccccc4)CC3)nc(N)c2cc1OC [CHEMBL527902]
Activity [2]: 4.087 µM

SMILES: COc1cccc2c(NCc3ccccc3)nc(NCCCN3CCCCC3C)nc12 (stereo not drawn) [CHEMBL546792]
Activity [2]: 4.102 µM

SMILES: Cc1ccccc1Nc1nc(Nc2ccccc2)c2ccccc2n1.Cl [CHEMBL582356]
Activity [2]: 4.496 µM

SMILES: CCOc1ccc2ccccc2c1-c1cc2nc(N)nc(N)c2cc1C [CHEMBL1818128]
Activity [3]: 4.5 nM

IC50 ([4]; Table S3, endothelium-denuded, read-out: E- Vaso. pIC50 (converted)): 10.7 µM | EC50 ([4]; endothelium-denuded (E−) rings pre-contracted with 10^-5 M PE, cumulative 0.0001–30 µM, mean (SEM), n = 6, read-out: Vaso E− EC50 µM (SEM)): 10.7 µM | Log Sol ([5]; 6 h, pH 7.4): 0.51 | Sol. pH7.4 (µM) ([5]; 6 h, pH 7.4): 3.27 µM | solubility thermodynamic at 6 h [5]: 1020 µg/mL (≈ 3.28 mM) | IC50 ([6]; Table S3, endothelium-intact, read-out: E+ Vaso. pIC50 (converted)): 4.47 µM | EC50 ([6]; endothelium-intact (E+) rings pre-contracted with 10^-5 M PE, cumulative 0.0001–30 µM, mean (SEM), n = 6, read-out: Vaso E+ EC50 µM (SEM)): 4.49 µM
SMILES: Clc1cnc(Nc2ccccc2)nc1NCc1ccccc1 [Compound 14]
Emax ([4]; maximal relaxation, endothelium-denuded rings, up to 30 µM, mean ± SEM): 54.7 ± 6.12% | Emax ([6]; maximal relaxation, endothelium-intact rings, up to 30 µM, mean ± SEM): 67.8 ± 5.34% | IC50 ([7]; A549, MTT, 72 h incubation, read-out: A549 IC50, µM (S.D.)): > 100 µM | IC50 ([7]; Table S3, A549, read-out: Cytox. pIC50 (converted)): > 100 µM | PDE-5 activity (in words) [8]: borderline PDE-5 inactive

SMILES: COc1cc2nc(N3CCN(C(=O)c4ccco4)CC3)nc(N)c2cc1OC [PRAZOSIN HYDROCHLORIDE]
Activity [9]: 25 µM

Sol. pH7.4 mg/mL ([5]; 6 h, pH 7.4): 0.55 mg/mL | Sol. pH7.4 (µM) ([5]; 6 h, pH 7.4): 1.42 µM | solubility thermodynamic at 6 h [5]: 550 µg/mL
SMILES: COc1cc2nc(N3CCN(C(=O)c4ccco4)CC3)nc(N)c2cc1OC [Prazosin (PZN), Prazosin HCl, reference compound]
inhibition at 10 µM [10]: 98% | Activity [1]: 1 nM

SMILES: COc1cc(NCc2ccc3nc(N)nc(N)c3c2C)cc(OC)c1OC [Trimetrexate]
Activity [3]: 3 nM
